Laboratory results from patent US8642591B2, “Composition containing amidine derivatives or carboxamide derivatives and steroids, as a medicament” (priority 2006, dated 2014).
Structures can show the parent of a compound that is named as a salt. Where two headings read alike, the source gives them in different places.

Test system: Human Skeletal Cells (SKM)
Assay: Protective effect on cell death induced by maitotoxin on human skeletal cells (SKM), WST-1 readout
Type: cell-based
Conditions: maitotoxin 24 h
Description: The principle of the test is the following: maitotoxin is a toxin which causes the opening of the calcium channels of cells. The resulting intra-cellular flow of calcium is at the origin of the death of the cell. During this process of cell death, a cysteine-dependent protease, calpain, is activated, and an abundance of free radicals is produced. The test consists of incubating the cells in the presence of the composition to be tested, in order to delay or inactivate cell death and thus determine the protective effect.
The myoblasts are seeded at 2500 cells per well in 96-well plates in a DMEM 10% FCS (foetal calf serum) culture medium supplemented with amphotericin B, human recombinant epidermal growth factor and dexamethasone. Three days after seeding, the cells have adhered to the base of the well, the differentiation of the cells to myotubes is induced by adding 100 μl of DMEM F12 medium containing 2% horse serum. After three more days, 100 μl of compound to be tested are placed at the bottom of the well. After incubation for one hour at 37° C. under an atmosphere of 5% CO2, the maitotoxin (MTX) (Wako, ref: 131-10731) is added to evaluate the protective effect (concentration-effect) of the compound to be tested on cell death.
After an incubation time of 24 h, the culture medium is replaced by a DMEM 10% FCS medium supplemented by WST-1. […] The cells are incubated for 1 hour in the presence of WST-1. Then the number of live cells is determined using a Perkin-Elmer Wallac Envision 2101 device by reading the absorbance at 450 nm. The concentration-effect of the products on the cell survival rate is then calculated.
The CE50 is deduced by linear regression: concentration with respect to the percentage of protection. The mathematical method used is the isobologram approach described in: “Drug synergism and dose-effect data analysis, Ronald J. Tallarida, Chapman & Hall/CRC, 2000”.

## CC(=O)OC1OCC[C@@H]1NC(=O)[C@H](CC(C)C)NC(=O)c1ccc2c(c1)Nc1ccccc1S2 (stereo partly drawn) [(3S)-3-{[N-(10H-phenothiazin-2-ylcarbonyl)-L-leucyl]amino}tetrahydrofuran-2-yl acetate]
Homo sapiens, 24 h, read-out: EC50 μM After incubation for 24 h with the toxin, single substance (proportion 1), cell mortality rate induced by the toxin 97%
  EC50: 29.1 µM

## CC(C)C[C@H](NC(=N)c1ccc2c(c1)Nc1ccccc1S2)C(=O)N[C@H]1CCOC1O (stereo partly drawn) [Example 5, N^1-[(3S)-2-hydroxytetrahydrofuran-3-yl]-N^2-[imino(10H-phenothiazin-2-yl)methyl]-L-leucinamide hydroiodide]
Homo sapiens, 24 h, read-out: EC50 μM After incubation for 24 h with the toxin, single substance (proportion 1), cell mortality rate induced by the toxin 84%
  EC50: 6.26 µM

## CC(C)C[C@H](NC(=N)c1ccc2c(c1)Nc1ccccc1S2)C(=O)N[C@H]1CCOC1O (stereo partly drawn) [Example 7, N^1-[(3S)-2-hydroxytetrahydrofuran-3-yl]-N^2-[imino(10H-phenothiazin-2-yl)methyl]-L-leucinamide hydrochloride]
Homo sapiens, 24 h, read-out: EC50 μM After incubation for 24 h with the toxin, single substance (proportion 1), cell mortality rate induced by the toxin 96%
  EC50: 5.92 µM

## C[C@H]1C[C@@H]2[C@H]([C@@H](O)C[C@@]3(C)[C@H]2CC[C@]3(O)C(=O)CO)[C@@]2(C)C=CC(=O)C=C12 [α-methylprednisolone]
Single substance (proportion 1), cell mortality rate induced by the toxin 84%, read-out: EC50 μM After incubation for 24 h with the toxin
  EC50: 87.6 µM
Single substance (proportion 1), cell mortality rate induced by the toxin 96%, read-out: EC50 μM After incubation for 24 h with the toxin
  EC50: 169 µM
Single substance (proportion 1), cell mortality rate induced by the toxin 97%, read-out: EC50 μM After incubation for 24 h with the toxin
  EC50: 107 µM
